Laboratory results: article PMC3319116 (Journal of Medicinal Chemistry, 2012)

Molecular target: T1, CB1 (Homo sapiens, UniProt P21554)
Experiment: CB1 Gαq16-coupled intracellular calcium mobilization assay in CHO-K1 cells
Assay type: cell-based
Conditions: not given

T1 sequence (P21554 whole entry): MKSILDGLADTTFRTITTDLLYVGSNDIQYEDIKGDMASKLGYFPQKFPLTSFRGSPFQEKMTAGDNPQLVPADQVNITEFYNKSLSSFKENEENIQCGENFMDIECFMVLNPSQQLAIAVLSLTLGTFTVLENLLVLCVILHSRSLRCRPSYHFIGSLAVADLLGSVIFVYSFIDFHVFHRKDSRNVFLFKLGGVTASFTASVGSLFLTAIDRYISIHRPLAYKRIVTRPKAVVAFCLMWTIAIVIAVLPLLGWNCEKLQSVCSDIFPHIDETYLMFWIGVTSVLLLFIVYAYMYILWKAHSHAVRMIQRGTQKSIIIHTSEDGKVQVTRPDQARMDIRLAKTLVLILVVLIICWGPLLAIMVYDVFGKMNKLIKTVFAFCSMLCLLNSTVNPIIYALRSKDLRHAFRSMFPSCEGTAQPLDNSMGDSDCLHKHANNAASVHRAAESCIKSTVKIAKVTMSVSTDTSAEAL

Row | SMILES | Kb
1 | Cc1c(C(=O)N2CCC(NC(=O)Nc3ccc(N(C)C)cc3)(c3ccccc3)CC2)nn(-c2ccc(Cl)cc2Cl)c1-c1ccc(Cl)cc1 [Compound 17e, 3-(1-{[5-(4-Chlorophenyl)-1-(2,4-dichlorophenyl)-4-methyl-1H-pyrazol-3-yl]carbonyl}-4-phenylpiperidin-4-yl)-1-[4-(dimethylamino)phenyl]urea] | 264 nM
2 | Cc1c(C(=O)N2CCC(C(=O)O)(c3ccccc3)CC2)nn(-c2ccc(Cl)cc2Cl)c1-c1ccc(Cl)cc1 [Compound 10, 1-{[5-(4-Chlorophenyl)-1-(2,4-dichlorophenyl)-4-methyl-1H-pyrazol-3-yl]carbonyl}-4-phenylpiperidine-4-carboxylic acid] | 1170 nM
3 | Cc1c(C(=O)NC2CCNCC2)nn(-c2ccc(Cl)cc2Cl)c1-c1ccc(Cl)cc1 [Compound 18b, 5-(4-Chlorophenyl)-1-(2,4-dichlorophenyl)-4-methyl-N-(piperidin-4-yl)-1H-pyrazole-3-carboxamide] | 5110 nM
4 | CC(=O)N1CCC(NC(=O)c2nn(-c3ccc(Cl)cc3Cl)c(-c3ccc(Cl)cc3)c2C)CC1 [Compound 18c, N-(1-Acetylpiperidin-4-yl)-5-(4-chlorophenyl)-1-(2,4-dichlorophenyl)-4-methyl-1H-pyrazole-3-carboxamide] | 195 nM
5 | Cc1c(C(=O)N[C@@H]2CCCN(S(C)(=O)=O)C2)nn(-c2ccc(Cl)cc2Cl)c1-c1ccc(Cl)cc1 [Compound 20d, 5-(4-Chlorophenyl)-1-(2,4-dichlorophenyl)-N-[(3R)-1-methanesulfonylpiperidin-3-yl]-4-methyl-1H-pyrazole-3-carboxamide] | 7 nM
6 | Cc1c(C(=O)N[C@H]2CCCN(S(C)(=O)=O)C2)nn(-c2ccc(Cl)cc2Cl)c1-c1ccc(Cl)cc1 [Compound 19d, 5-(4-Chlorophenyl)-1-(2,4-dichlorophenyl)-N-[(3S)-1-methanesulfonylpiperidin-3-yl]-4-methyl-1H-pyrazole-3-carboxamide] | 62 nM
7 | CCOC(=O)N1CCC(NC(=O)c2nn(-c3ccc(Cl)cc3Cl)c(-c3ccc(Cl)cc3)c2C)CC1 [Compound 18l, Ethyl-4-[5-(4-chlorophenyl)-1-(2,4-dichlorophenyl)-4-methyl-1H-pyrazole-3-amido]piperidine-1-carboxylate] | 3 nM
8 | Cc1c(C(=O)NC2CCN(S(C)(=O)=O)CC2)nn(-c2ccc(Cl)cc2Cl)c1-c1ccc(Cl)cc1 [Compound 18d, 5-(4-Chlorophenyl)-1-(2,4-dichlorophenyl)-N-(1-methanesulfonylpiperidin-4-yl)-4-methyl-1H-pyrazole-3-carboxamide] | 269 nM
9 | Cc1c(C(=O)NC2CCN(S(N)(=O)=O)CC2)nn(-c2ccc(Cl)cc2Cl)c1-c1ccc(Cl)cc1 [Compound 18e, 5-(4-Chlorophenyl)-1-(2,4-dichlorophenyl)-4-methyl-N-(1-sulfamoylpiperidin-4-yl)-1H-pyrazole-3-carboxamide] | 592 nM

The remaining lines, values ahead:

Row | Kb | SMILES
10 | 171 nM | CCNC(=O)N1CCC[C@@H](NC(=O)c2nn(-c3ccc(Cl)cc3Cl)c(-c3ccc(Cl)cc3)c2C)C1 [Compound 20e, (3R)-3-C-5-(4-Chlorophenyl)-1-(2,4-dichlorophenyl)-4-methyl-1H-pyrazole-3-1-N-ethylpiperidine-1,3-diamido]
11 | 150 nM | Cc1c(C(=O)NCC2CCC(CNC(=O)NC(C)(C)C)CC2)nn(-c2ccc(Cl)cc2Cl)c1-c1ccc(Cl)cc1 (stereo not drawn) [Compound 21e, N-[(4-{[(tert-Butylcarbamoyl)amino]methyl}cyclohexyl)methyl]-5-(4-chlorophenyl)-1-(2,4-dichlorophenyl)-4-methyl-1H-pyrazole-3-carboxamide]
12 | 230 nM | CCCCNC(=O)N1CCC[C@H](NC(=O)c2nn(-c3ccc(Cl)cc3Cl)c(-c3ccc(Cl)cc3)c2C)C1 [Compound 19h, (3S)-1-N-Butyl-3-C-5-(4-chlorophenyl)-1-(2,4-dichlorophenyl)-4-methyl-1H-pyrazole-3-piperidine-1,3-diamido]
13 | 265 nM | Cc1c(C(=O)N[C@H]2CCCN(C(=O)NC(C)C)C2)nn(-c2ccc(Cl)cc2Cl)c1-c1ccc(Cl)cc1 [Compound 19f, (3S)-3-C-5-(4-Chlorophenyl)-1-(2,4-dichlorophenyl)-4-methyl-1H-pyrazole-3-1-N-(propan-2-yl)piperidine-1,3-diamido]
14 | 842 nM | Cc1c(C(=O)N[C@H]2CCCN(C(=O)OC(C)(C)C)C2)nn(-c2ccc(Cl)cc2Cl)c1-c1ccc(Cl)cc1 [Compound 19a, tert-Butyl-(3S)-3-[5-(4-chlorophenyl)-1-(2,4-dichlorophenyl)-4-methyl-1H-pyrazole-3-amido]piperidine-1-carboxylate]
15 | 274 nM | CCCCNC(=O)NCC1CCC(CNC(=O)c2nn(-c3ccc(Cl)cc3Cl)c(-c3ccc(Cl)cc3)c2C)CC1 (stereo not drawn) [Compound 21d, N-[(4-{[(Butylcarbamoyl)amino]methyl}cyclohexyl)methyl]-5-(4-chlorophenyl)-1-(2,4-dichlorophenyl)-4-methyl-1H-pyrazole-3-carboxamide]
16 | 118 nM | CCCCNC(=O)N1CCC[C@@H](NC(=O)c2nn(-c3ccc(Cl)cc3Cl)c(-c3ccc(Cl)cc3)c2C)C1 [Compound 20h, (3R)-1-N-Butyl-3-C-5-(4-chlorophenyl)-1-(2,4-dichlorophenyl)-4-methyl-1H-pyrazole-3-piperidine-1,3-diamido]
17 | 486 nM | CCCNC(=O)NCC1CCC(CNC(=O)c2nn(-c3ccc(Cl)cc3Cl)c(-c3ccc(Cl)cc3)c2C)CC1 (stereo not drawn) [Compound 21c, 5-(4-Chlorophenyl)-1-(2,4-dichlorophenyl)-4-methyl-N-[(4-{[(propylcarbamoyl)amino]methyl}cyclohexyl)methyl]-1H-pyrazole-3-carboxamide]
18 | 351 nM | Cc1c(C(=O)NCC2CCC(CNC(=O)NC(C)C)CC2)nn(-c2ccc(Cl)cc2Cl)c1-c1ccc(Cl)cc1 (stereo not drawn) [Compound 21b, 5-(4-Chlorophenyl)-1-(2,4-dichlorophenyl)-4-methyl-N-{[4-({[(propan-2-yl)carbamoyl]amino}methyl)cyclohexyl]methyl}-1H-pyrazole-3-carboxamide]
19 | 135 nM | CCNC(=O)NCC1CCC(CNC(=O)c2nn(-c3ccc(Cl)cc3Cl)c(-c3ccc(Cl)cc3)c2C)CC1 (stereo not drawn) [Compound 21a, 5-(4-Chlorophenyl)-1-(2,4-dichlorophenyl)-N-[(4-{[(ethylcarbamoyl)amino]methyl}cyclohexyl)methyl]-4-methyl-1H-pyrazole-3-carboxamide]
20 | 1880 nM | Cc1c(C(=O)N[C@H]2CCCNC2)nn(-c2ccc(Cl)cc2Cl)c1-c1ccc(Cl)cc1 [Compound 19b, 5-(4-Chlorophenyl)-1-(2,4-dichlorophenyl)-4-methyl-N-[(3S)-piperidin-3-yl]-1H-pyrazole-3-carboxamide]
21 | 206 nM | Cc1c(C(=O)N[C@H]2CCCN(C(=O)NC(C)(C)C)C2)nn(-c2ccc(Cl)cc2Cl)c1-c1ccc(Cl)cc1 [Compound 19i, (3S)-1-N-tert-Butyl-3-C-5-(4-chlorophenyl)-1-(2,4-dichlorophenyl)-4-methyl-1H-pyrazole-3-piperidine-1,3-diamido]
22 | 530 nM | CC(=O)N1CCC[C@@H](NC(=O)c2nn(-c3ccc(Cl)cc3Cl)c(-c3ccc(Cl)cc3)c2C)C1 [Compound 20c, N-[(3R)-1-Acetylpiperidin-3-yl]-5-(4-chlorophenyl)-1-(2,4-dichlorophenyl)-4-methyl-1H-pyrazole-3-carboxamide]
23 | 280 nM | CCNC(=O)N1CCC[C@H](NC(=O)c2nn(-c3ccc(Cl)cc3Cl)c(-c3ccc(Cl)cc3)c2C)C1 [Compound 19e, (3S)-3-C-5-(4-Chlorophenyl)-1-(2,4-dichlorophenyl)-4-methyl-1H-pyrazole-3-1-N-ethylpiperidine-1,3-diamido]
24 | 1170 nM | Cc1c(C(=O)N[C@@H]2CCCNC2)nn(-c2ccc(Cl)cc2Cl)c1-c1ccc(Cl)cc1 [Compound 20b, 5-(4-Chlorophenyl)-1-(2,4-dichlorophenyl)-4-methyl-N-[(3R)-piperidin-3-yl]-1H-pyrazole-3-carboxamide]
25 | 268 nM | Cc1c(C(=O)N[C@@H]2CCCN(C(=O)NC(C)(C)C)C2)nn(-c2ccc(Cl)cc2Cl)c1-c1ccc(Cl)cc1 [Compound 20i, (3R)-1-N-tert-Butyl-3-C-5-(4-chlorophenyl)-1-(2,4-dichlorophenyl)-4-methyl-1H-pyrazole-3-piperidine-1,3-diamido]

Same assay, conditions: Ke CB1, fold more potent than 7

Row | SMILES | potency relative to sulfonamide 7
26 | Cc1c(C(=O)N[C@@H]2CCCN(S(C)(=O)=O)C2)nn(-c2ccc(Cl)cc2Cl)c1-c1ccc(Cl)cc1 [Compound 20d, 5-(4-Chlorophenyl)-1-(2,4-dichlorophenyl)-N-[(3R)-1-methanesulfonylpiperidin-3-yl]-4-methyl-1H-pyrazole-3-carboxamide] | 16 fold

Same assay, conditions: apparent dissociation affinity constant; rightward shift of CP55940 curve

Row | Ke (nM) CB1 | SMILES
27 | 2.09 nM | Cc1c(C(=O)N2CCC(NC(=O)NCc3ccccc3)(c3ccccc3)CC2)nn(-c2ccc(Cl)cc2Cl)c1-c1ccc(Cl)cc1 [Compound 17b, 1-Benzyl-3-(1-{[5-(4-chlorophenyl)-1-(2,4-dichlorophenyl)-4-methyl-1H-pyrazol-3-yl]carbonyl}-4-phenylpiperidin-4-yl)urea]

Molecular target: T1, CB1
Experiment: Radioligand displacement of [3H]CP55940 at CB1
Assay type: binding
Conditions: Ki vs CP55940

Row | SMILES | selectivity for CB1 versus CB2
28 | Cc1c(C(=O)N[C@@H]2CCCN(S(C)(=O)=O)C2)nn(-c2ccc(Cl)cc2Cl)c1-c1ccc(Cl)cc1 [Compound 20d, 5-(4-Chlorophenyl)-1-(2,4-dichlorophenyl)-N-[(3R)-1-methanesulfonylpiperidin-3-yl]-4-methyl-1H-pyrazole-3-carboxamide] | over 100 fold
29 | Cc1c(C(=O)N[C@H]2CCCN(S(C)(=O)=O)C2)nn(-c2ccc(Cl)cc2Cl)c1-c1ccc(Cl)cc1 [Compound 19d, 5-(4-Chlorophenyl)-1-(2,4-dichlorophenyl)-N-[(3S)-1-methanesulfonylpiperidin-3-yl]-4-methyl-1H-pyrazole-3-carboxamide] | over 100 fold

Tested on: not listed separately
Experiment: In vivo evaluation of brain penetration
Set-up: species or system rats
Conditions: Oral, 10 mg/kg, 60 min, unperfused brain

Row | Brain Conc. | SMILES
30 | below the lower limit of quantitation | Cc1c(C(=O)N2CCC(NC(=O)NC(C)(C)C)(c3ccccc3)CC2)nn(-c2ccc(Cl)cc2Cl)c1-c1ccc(Cl)cc1 [Compound 17a, 3-tert-Butyl-1-(1-{[5-(4-chlorophenyl)-1-(2,4-dichlorophenyl)-4-methyl-1H-pyrazol-3-yl]carbonyl}-4-phenylpiperidin-4-yl)urea]

Same assay, conditions: oral or ip, 10 mg/kg

Row | bioavailable with oral or intra-peritoneal dosing | SMILES
31 | bioavailable | Cc1c(C(=O)NC2CCN(C(=O)OC(C)(C)C)CC2)nn(-c2ccc(Cl)cc2Cl)c1-c1ccc(Cl)cc1 [Compound 18a, tert-Butyl-4-[5-(4-chlorophenyl)-1-(2,4-dichlorophenyl)-4-methyl-1H-pyrazole-3-amido]piperidine-1-carboxylate]
32 | bioavailable | Cc1c(C(=O)NC2CCN(C(=O)NC(C)(C)C)CC2)nn(-c2ccc(Cl)cc2Cl)c1-c1ccc(Cl)cc1 [Compound 18f, 1-N-tert-Butyl-4-C-5-(4-chlorophenyl)-1-(2,4-dichlorophenyl)-4-methyl-1H-pyrazole-3-piperidine-1,4-diamido]
33 | bioavailable | Cc1c(C(=O)N2CCC(NC(=O)NC(C)(C)C)(c3ccccc3)CC2)nn(-c2ccc(Cl)cc2Cl)c1-c1ccc(Cl)cc1 [Compound 17a, 3-tert-Butyl-1-(1-{[5-(4-chlorophenyl)-1-(2,4-dichlorophenyl)-4-methyl-1H-pyrazol-3-yl]carbonyl}-4-phenylpiperidin-4-yl)urea]
